Experimental data as given in article PMC5267425, “Identification of small molecule modulators of HIV-1 Tat and Rev protein accumulation” (Retrovirology, 2017).

Columns and labels:
Type in all cases: cell-based
p53 = experiment: Western blot of p53; conditions: 791 30 µM, 833 2 µM, 892 15 µM
Protocol: (§1) ELISA for p24 Gag antigen was performed on cell supernatants using kits purchased from Frederick National Laboratory for Cancer Research (Leidos) or XpressBio extended range kit and performed according to manufacturer’s instructions. Protein concentration in cell lysates was quantified by Bradford assay and equal amounts of protein run on 7, 10, 12, or 14% SDS-PAGE, depending on the protein of interest. Following transfer to PVDF (BioRad or Perkin-Elmer), blots were blocked in either 5% Milk-PBS-T (5% Milk, 0.05% Tween-20, 1× PBS) or 3% BSA-PBS-T (3% BSA, 0.05% Tween-20, 1× PBS) prior to incubating with primary antibody (all diluted in 3% BSA-PBS-T). Primary antibodies used were: purified mouse anti-p24 supernatant from anti-HIV-1 Gag hybridoma 183, mouse anti-gp120 hybridoma 902 (NIH AIDS Reagent Program), mouse monoclonal antibody to HIV-1 Rev (Abcam), rabbit polyclonal antibody to HIV-1 Tat (Abcam), mouse monoclonal antibody to p53 (Santa Cruz), rabbit purified IgG for Nap1 (provided by L. Frappier), rabbit polyclonal antibody to GAPDH (Sigma-Aldrich), or mouse monoclonal antibody to α-Tubulin (Sigma-Aldrich). Following incubation with appropriate secondary antibody, blots were visualized by ECL, ECL Plus (Perkin-Elmer), or Clarity Western ECL substrate (BioRad). Quantification of the relative intensity of the detected bands was done using ImageLab software and normalized to corresponding bands of the loading control (GAPDH or α-Tubulin).

[1] = test system: HIV-1 Tat (p14, p16) and Gag; experiment: Rescue of Tat/Gag expression by proteasome inhibitor MG132; conditions: MG132 10 μM for 8 h in the presence of compound
Protocol: To assess effect of compounds on HIV-1 Tat stability, the decay of HIV-1 Tat levels was compared between DMSO-treated and compound-treated protein lysates in the presence of cycloheximide. In the first set of experiments, HIV-1 gene expression was induced with doxycylin (dox) for 24 h then 10 μg/mL cycloheximide was added to block new protein synthesis in combination with either DMSO or the compounds. Cells were harvested every 2 h and Tat protein levels measured by western blot. Quantification of the relative intensity of the detected bands was performed using ImageLab software (BioRad) and normalized to corresponding bands of the loading control (GAPDH) from at least three independent experiments. To determine whether the compounds’ effect on HIV-1 gene expression could be reversed by inhibition of the proteasome, compound treatment assay was performed as previously described with the addition of 10 μM MG132 (Sigma-Aldrich) to compound-treated cells 8 h prior to harvesting. Equal amounts of protein were run on 13 or 14% gels by SDS-PAGE, blotted and probed with antibodies for Tat and GAPDH. Quantification of the relative intensity of the detected bands was performed using ImageLab software (BioRad) and normalized to corresponding bands of the loading control (GAPDH) from at least three independent experiments.

[2] = test system: HIV-1 gene expression in HeLa rtTA HIV∆Mls cells; experiment: HIV-1 gene expression / virion production by p24 antigen ELISA, Dox-inducible provirus; conditions: for reduction of HIV-1 viral production relative to DMSO (+Dox): 791 30 µM, 833 2 µM, 892 15 µM, 24 h (Fig. 1); for IC50: Human immunodeficiency virus 1, HeLa
From the text: Effects of compound treatment on HIV-1 gene expression were initially assessed in the context of HeLa rtTA HIV∆Mls cells stably transduced with an inducible Tet-On HIV-1 system (as previously described). The provirus was modified by either deletion in the reverse transcriptase and integrase region of the pol gene by an MlsI restriction digest (HeLa rtTA HIV∆Mls cell line) or GFP fusion to Gag, deleting the PR and RT-coding regions (HeLa rtTA HIVGagGFP cell line). […] All cell lines were maintained in Iscove’s modified Delbecco’s medium (IMDM; Wisent) supplemented with 10% (vol/vol) fetal bovine serum (FBS, Wisent), 1% penicillin/streptomycin (P/S, Wisent) and 0.2% Amphotericin B (Wisent). Indicator cell line CEM-GXR was obtained from Dr. Mark Brockman (Simon Fraser University). The RTI-resistant virus (E00443) was obtained from Dr. Zabrina Brumme (Simon Fraser University). The HIV-1 clade A (97USSN54 (N54)), HIV-1 clade B (IIIB), integrase inhibitor resistant virus (11845), protease inhibitor resistant virus (2948) were obtained through the NIH AIDS Research and Reference reagent program, Division of AIDS, NIAID, NIH).
The compounds used in the treatment assay were obtained from ChemBridge. All compounds were solubilized to 10 mM or 1 mM stock concentrations in dimethyl sulfoxide (DMSO) and stored at −20 °C for subsequent experiments. Cells were incubated for 3–5 h in the presence of the compounds prior to induction with doxycycline (Dox) at a final concentration of 2 μg/mL. 24 h post compound treatment, culture medium was harvested, adjusted to 1% Triton X-100, and incubated at 37 °C for 1 h for p24 antigen ELISA. Cells were harvested in 2 mM EDTA, 1xPBS. RNA was isolated using Aurum Total RNA extraction kits (Bio-Rad), while total protein was extracted with RIPA buffer (1% NP-40, 0.1% SDS, 0.5% sodium deoxycholate, 150 mM NaCl, 50 mM Tris–HCl).
as §1

[3] = test system: total protein synthesis in HeLa HIVrtTA∆Mls cells; experiment: SUnSET total protein synthesis; conditions: doses that significantly reduced HIV-1 protein expression, ∓Dox
Protocol: The effect of the compounds on nascent protein synthesis was measured by surface sensing of translation (SUnSET) as described by Schmidt et al.. Cells were incubated with puromycin, an aminoacyl tRNA analog, to allow puromycin incorporation into newly translated peptides and prevention of further ribosomal elongation by chain termination. To assess the effect of the compounds on protein translation, cells were prepared and treated as described above, but were incubated with 10 μg/mL of puromycin for a period of 30 min prior to harvesting cell lysates for protein analysis. Protein concentration of cell lysates was quantified by Bradford assay and equal amounts of protein (30–35 μg) was run on either 10% or 4–15% (gradient) gels. Following transfer to PVDF (BioRad), blots were probed with mouse monoclonal antibody to puromycin (anti-12D10, EMD Millipore). Blots were developed using ECL Plus (Perkin-Elmer) or Clarity (BioRad) and imaged using the ChemiDoc MP Imager (BioRad). To quantify the levels of protein synthesis, the volume intensity in each lane of compound-treated sample was calculated relative to the DMSO-treated sample and normalized to GAPDH loading control using ImageLab software (BioRad) from at least four independent experiments.

`Cc1cc(NCc2cccnc2)n2ncc(-c3ccc(Cl)cc3)c2n1` [Compound 791, 3-(4-chlorophenyl)-5-methyl-N-(3-pyridinylmethyl)pyrazolo[1,5-a]pyrimidin-7-amine] was tested, and the p53 expression (p53) was “approximately twofold”, the “accumulation of both Tat isoforms on addition of MG132” value (“accumulation of both Tat isoforms” for short) [1] was “significant accumulation” and the “reduction of HIV-1 viral production relative to DMSO (+Dox)” value [2] was 80–90%. For the same compound, the IC50 [2] was 8.2 µM and the “reduction in protein synthesis relative to DMSO” value [3] was “little or no effect”.

In the case of `O=C(NC(=S)NNC(=O)c1ccccc1O)c1ccc(-c2ccccc2)cc1` [Compound 833, N-([2-(2-hydroxybenzoyl)hydrazino]carbonothioyl}-4-biphenylcarboxamide], the p53 expression (p53) is reported as “no effect”, the “accumulation of both Tat isoforms” value [1] is reported as “significant accumulation” and the “reduction in Gag expression” value ([2]; 1.5 µM) is reported as 90%. The “reduction of HIV-1 viral production relative to DMSO (+Dox)” value [2] was 80–90%, the IC50 [2] was 0.6 µM and the “reduction in protein synthesis relative to DMSO” value [3] was “little or no effect”.

For `COc1ccc(C=NNC(=O)c2ccccc2O)cc1O` [Compound 892, 2-hydroxy-N′-(3-hydroxy-4-methoxybenzylidene)benzohydrazide], the p53 expression (p53) was “no effect”, the “accumulation of both Tat isoforms” value [1] was “significant accumulation” and the “reduction of HIV-1 viral production relative to DMSO (+Dox)” value [2] was 80–90%. For the same compound, the IC50 [2] was 1.8 µM and the “reduction in protein synthesis relative to DMSO” value [3] was ~ 25%.
